Results from the supplement of paper PMC10307832.

Assays:
Experiment in all cases: relative viability (nuclei count vs DMSO), 5 days (fraction); higher = more cells survive
[1] = compound: Cc1nc(NC(=O)N2CCC[C@H]2C(N)=O)sc1-c1ccnc(C(C)(C)C(F)(F)F)c1 [Alpelisib] + CC1(C)CCC(c2ccc(Cl)cc2)=C(CN2CCN(c3ccc(C(=O)NS(=O)(=O)c4ccc(N[C@H](CCN5CCOCC5)CSc5ccccc5)c(S(=O)(=O)C(F)(F)F)c4)cc3)CC2)C1 [Navitoclax] (partner 0.5 µM)
In short: (§1)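 Lung cancer cell lines in 1536-well plates were dosed by pin tool the day after seeding, either with one drug alone or with a fixed anchor-drug dose plus five library-drug doses (not always all listed) in √10 steps. After 5 days, cells were fixed and their nuclei stained in one step (final 0.05% Triton X-100, 1% formaldehyde, 1 ug/ml Hoechst), then counted on 4× images. Relative viability is the nuclei count in treated wells divided by that in vehicle wells. Values are medians of duplicate plates.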

[2] = compound: Cc1nc(NC(=O)N2CCC[C@H]2C(N)=O)sc1-c1ccnc(C(C)(C)C(F)(F)F)c1 [Alpelisib] + N=C(N)NC(=N)NCCc1ccccc1 [Phenformin] (partner 250 µM)
In short: as §1

[3] = compound: CCCS(=O)(=O)Nc1ccc(F)c(C(=O)c2c[nH]c3ncc(-c4ccc(Cl)cc4)cc23)c1F [Vemurafenib] + CC(=O)Nc1cccc(-n2c(=O)n(C3CC3)c(=O)c3c(Nc4ccc(I)cc4F)n(C)c(=O)c(C)c32)c1 [Trametinib] (partner 0.02 µM)
In short: as §1

[4] = compound: COc1cccc2cc(-c3nc([C@H]4CC[C@H](C(=O)O)CC4)n4ncnc(N)c34)[nH]c12 [OSI-027] + CS(=O)(=O)CCNCc1ccc(-c2ccc3ncnc(Nc4ccc(OCc5cccc(F)c5)c(Cl)c4)c3c2)o1 [Lapatinib] (partner 2 µM)
In short: as §1

Question: PC-14 was tested. Which relative viability ([1]; first compound 0.04 µM) did it give?
Answer: 0.984

Question: And the relative viability ([1]; first compound 0.1265 µM)?
Answer: 1.08

Question: What about the relative viability ([1]; first compound 0.4 µM) of the same cell line?
Answer: 1.16

Question: And the relative viability ([1]; first compound 1.265 µM)?
Answer: 0.913

Question: And the relative viability ([1]; first compound 4 µM)?
Answer: 0.945

Question: What about the relative viability ([2]; first compound 0.04 µM) of the same cell line?
Answer: 0.653

Question: And the relative viability ([2]; first compound 0.1265 µM)?
Answer: 0.406

Question: What about the relative viability ([2]; first compound 0.4 µM) of the same cell line?
Answer: 0.67

Question: What about the relative viability ([2]; first compound 1.265 µM) of the same cell line?
Answer: 0.54

Question: And the relative viability ([2]; first compound 4 µM)?
Answer: 0.526

Question: And the relative viability ([3]; first compound 0.03162 µM)?
Answer: 0.735

Question: And the relative viability ([3]; first compound 0.3162 µM)?
Answer: 0.862

Question: And the relative viability ([3]; first compound 1 µM)?
Answer: 0.803

Question: What about the relative viability ([4]; first compound 0.01 µM) of the same cell line?
Answer: 0.3

Question: What about the relative viability ([4]; first compound 0.03162 µM) of the same cell line?
Answer: 0.306

Question: What about the relative viability ([4]; first compound 0.1 µM) of the same cell line?
Answer: 0.293

Question: And the relative viability ([4]; first compound 0.3162 µM)?
Answer: 0.255

Question: And the relative viability ([4]; first compound 1 µM)?
Answer: 0.179

Question: What does the source list for RERF-LC-KJ?
Answer: relative viability ([1]; first compound 0.04 µM): 0.768; relative viability ([1]; first compound 0.1265 µM): 0.931; relative viability ([1]; first compound 0.4 µM): 0.935; relative viability ([1]; first compound 1.265 µM): 0.626; relative viability ([1]; first compound 4 µM): 0.741; relative viability ([2]; first compound 0.04 µM): 0.427; relative viability ([2]; first compound 0.1265 µM): 0.394; relative viability ([2]; first compound 0.4 µM): 0.433; relative viability ([2]; first compound 1.265 µM): 0.345; relative viability ([2]; first compound 4 µM): 0.33; relative viability ([3]; first compound 0.03162 µM): 0.826; relative viability ([3]; first compound 0.1 µM): 0.921; relative viability ([3]; first compound 0.3162 µM): 0.872; relative viability ([3]; first compound 1 µM): 0.783; relative viability ([4]; first compound 0.01 µM): 0.778; relative viability ([4]; first compound 0.03162 µM): 0.843; relative viability ([4]; first compound 0.1 µM): 0.78; relative viability ([4]; first compound 0.3162 µM): 0.589; relative viability ([4]; first compound 1 µM): 0.376

Question: What does the source list for SK-LU-1?
Answer: relative viability ([1]; first compound 0.04 µM): 0.781; relative viability ([1]; first compound 0.1265 µM): 0.788; relative viability ([1]; first compound 0.4 µM): 0.845; relative viability ([1]; first compound 1.265 µM): 0.814; relative viability ([1]; first compound 4 µM): 0.654; relative viability ([2]; first compound 0.04 µM): 0.495; relative viability ([2]; first compound 0.1265 µM): 0.498; relative viability ([2]; first compound 0.4 µM): 0.434; relative viability ([2]; first compound 1.265 µM): 0.408; relative viability ([2]; first compound 4 µM): 0.358; relative viability ([3]; first compound 0.03162 µM): 0.468; relative viability ([3]; first compound 0.1 µM): 0.515; relative viability ([3]; first compound 0.3162 µM): 0.459; relative viability ([3]; first compound 1 µM): 0.432; relative viability ([4]; first compound 0.01 µM): 0.888; relative viability ([4]; first compound 0.03162 µM): 0.817; relative viability ([4]; first compound 0.1 µM): 0.656; relative viability ([4]; first compound 0.3162 µM): 0.519; relative viability ([4]; first compound 1 µM): 0.29

Question: How did the relative viability ([1]; first compound 0.04 µM) turn out when SK-MES-1 was run?
Answer: 1.16

Question: What about the relative viability ([1]; first compound 0.1265 µM) of the same cell line?
Answer: 1.25

Question: What about the relative viability ([1]; first compound 0.4 µM) of the same cell line?
Answer: 1.29

Question: What about the relative viability ([1]; first compound 1.265 µM) of the same cell line?
Answer: 1.02

Question: What about the relative viability ([1]; first compound 4 µM) of the same cell line?
Answer: 0.793

Question: What about the relative viability ([2]; first compound 0.04 µM) of the same cell line?
Answer: 0.662

Question: What about the relative viability ([2]; first compound 0.1265 µM) of the same cell line?
Answer: 0.635

Question: And the relative viability ([2]; first compound 0.4 µM)?
Answer: 0.755

Question: What about the relative viability ([2]; first compound 1.265 µM) of the same cell line?
Answer: 0.608

Question: And the relative viability ([2]; first compound 4 µM)?
Answer: 0.675

Question: And the relative viability ([3]; first compound 0.03162 µM)?
Answer: 0.569

Question: And the relative viability ([3]; first compound 0.3162 µM)?
Answer: 0.589

Question: And the relative viability ([3]; first compound 1 µM)?
Answer: 0.763

Question: What about the relative viability ([4]; first compound 0.01 µM) of the same cell line?
Answer: 0.481

Question: What about the relative viability ([4]; first compound 0.03162 µM) of the same cell line?
Answer: 0.435

Question: And the relative viability ([4]; first compound 0.1 µM)?
Answer: 0.371

Question: And the relative viability ([4]; first compound 0.3162 µM)?
Answer: 0.316

Question: And the relative viability ([4]; first compound 1 µM)?
Answer: 0.253

Question: What does the source list for SW 1573?
Answer: relative viability ([1]; first compound 0.04 µM): 0.903; relative viability ([1]; first compound 0.1265 µM): 0.879; relative viability ([1]; first compound 0.4 µM): 1.03; relative viability ([1]; first compound 1.265 µM): 0.768; relative viability ([1]; first compound 4 µM): 0.585; relative viability ([2]; first compound 0.04 µM): 0.306; relative viability ([2]; first compound 0.1265 µM): 0.335; relative viability ([2]; first compound 0.4 µM): 0.272; relative viability ([2]; first compound 1.265 µM): 0.217; relative viability ([2]; first compound 4 µM): 0.257; relative viability ([3]; first compound 0.03162 µM): 0.556; relative viability ([3]; first compound 0.1 µM): 0.612; relative viability ([3]; first compound 0.3162 µM): 0.679; relative viability ([3]; first compound 1 µM): 0.49; relative viability ([4]; first compound 0.01 µM): 0.941; relative viability ([4]; first compound 0.03162 µM): 1.14; relative viability ([4]; first compound 0.1 µM): 1.05; relative viability ([4]; first compound 0.3162 µM): 0.989; relative viability ([4]; first compound 1 µM): 0.636
